According to publication PMC3914206:

Tests used:
Assay type in all cases: binding
Set-up in all cases: KINOMEscan: ABL1(F317L)-phosphorylated / KINOMEscan: ABL1(H396P)-nonphosphorylated / KINOMEscan: ABL1(H396P)-phosphorylated / KINOMEscan: ABL1(M351T)-phosphorylated / KINOMEscan: ABL1(T315I)-phosphorylated / KINOMEscan: ABL1-nonphosphorylated / KINOMEscan: ABL1-phosphorylated / KINOMEscan: ACVR2A / KINOMEscan: ACVR2B / KINOMEscan: ADCK3 / KINOMEscan: ADCK4 / KINOMEscan: AKT1 / KINOMEscan: AKT3 / KINOMEscan: ALK / KINOMEscan: ARK5 / KINOMEscan: AURKA / KINOMEscan: AURKC / KINOMEscan: BIKE / KINOMEscan: BMPR1A / KINOMEscan: BMPR1B / KINOMEscan: BMX / KINOMEscan: BRK / KINOMEscan: BRSK1 / KINOMEscan: BRSK2 / KINOMEscan: CAMK1 / KINOMEscan: CAMK1D / KINOMEscan: CAMK1G / KINOMEscan: CAMK2A / KINOMEscan: CAMK2B / KINOMEscan: AAK1 / KINOMEscan: CAMK2D / KINOMEscan: CAMK2G / KINOMEscan: ABL1(F317I)-nonphosphorylated / KINOMEscan: ABL1(F317I)-phosphorylated / KINOMEscan: ABL1(F317L)-nonphosphorylated: unit: % Ctrl
Settings in all cases: Compound Concentration 10 µM
panel of 442 kinases [1] = target: T1, panel of 442 kinases (Homo sapiens, UniProt Q13554)
T1 construct: purchased KINOMEscan
Source text: (§1) We assessed the selectivity of members of this scaffold using the KINOMEscan methodology across a near comprehensive panel of 442 kinases [[18,27]].

panel of 442 kinases [2] = target: T2, panel of 442 kinases (Homo sapiens, UniProt Q8N568)
T2 construct: purchased KINOMEscan
Source text: as §1

panel of 442 kinases [3] = target: T3, panel of 442 kinases (Homo sapiens, UniProt Q13043)
T3 construct: purchased KINOMEscan
T3 sequence (Q13043 1-487): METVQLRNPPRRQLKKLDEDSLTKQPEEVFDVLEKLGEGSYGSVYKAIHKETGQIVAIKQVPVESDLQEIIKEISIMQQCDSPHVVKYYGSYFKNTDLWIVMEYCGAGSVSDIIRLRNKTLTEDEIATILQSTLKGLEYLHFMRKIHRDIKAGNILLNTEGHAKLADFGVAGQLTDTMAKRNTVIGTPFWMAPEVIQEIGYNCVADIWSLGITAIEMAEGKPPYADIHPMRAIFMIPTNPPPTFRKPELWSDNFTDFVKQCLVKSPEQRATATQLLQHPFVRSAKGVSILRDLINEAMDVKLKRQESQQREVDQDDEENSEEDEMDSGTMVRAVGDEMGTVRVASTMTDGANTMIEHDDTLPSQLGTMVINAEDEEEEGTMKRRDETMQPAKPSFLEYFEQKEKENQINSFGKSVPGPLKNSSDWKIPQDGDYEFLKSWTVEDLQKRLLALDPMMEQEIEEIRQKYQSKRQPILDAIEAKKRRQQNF
Source text: as §1

T2 sequence (Q8N568 whole entry): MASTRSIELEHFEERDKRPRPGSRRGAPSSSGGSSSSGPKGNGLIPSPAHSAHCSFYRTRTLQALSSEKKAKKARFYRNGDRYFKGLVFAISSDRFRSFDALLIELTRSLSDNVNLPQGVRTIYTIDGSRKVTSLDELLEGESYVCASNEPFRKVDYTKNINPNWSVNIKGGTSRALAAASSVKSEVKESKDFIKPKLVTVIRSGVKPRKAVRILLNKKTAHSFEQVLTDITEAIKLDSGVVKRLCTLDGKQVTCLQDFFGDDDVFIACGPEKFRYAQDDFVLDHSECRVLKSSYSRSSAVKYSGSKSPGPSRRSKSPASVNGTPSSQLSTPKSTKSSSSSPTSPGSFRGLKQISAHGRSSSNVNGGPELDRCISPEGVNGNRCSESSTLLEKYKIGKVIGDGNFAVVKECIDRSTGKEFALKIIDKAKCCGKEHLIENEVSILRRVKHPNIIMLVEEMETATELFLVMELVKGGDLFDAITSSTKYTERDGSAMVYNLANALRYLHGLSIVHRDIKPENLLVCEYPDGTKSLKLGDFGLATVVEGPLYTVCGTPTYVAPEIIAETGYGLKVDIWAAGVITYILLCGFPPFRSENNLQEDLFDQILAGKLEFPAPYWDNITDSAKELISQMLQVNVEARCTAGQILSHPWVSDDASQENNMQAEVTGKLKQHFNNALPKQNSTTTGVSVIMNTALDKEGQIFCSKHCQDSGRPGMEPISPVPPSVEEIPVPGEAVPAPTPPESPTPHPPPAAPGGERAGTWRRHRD
T1 sequence (Q13554 whole entry): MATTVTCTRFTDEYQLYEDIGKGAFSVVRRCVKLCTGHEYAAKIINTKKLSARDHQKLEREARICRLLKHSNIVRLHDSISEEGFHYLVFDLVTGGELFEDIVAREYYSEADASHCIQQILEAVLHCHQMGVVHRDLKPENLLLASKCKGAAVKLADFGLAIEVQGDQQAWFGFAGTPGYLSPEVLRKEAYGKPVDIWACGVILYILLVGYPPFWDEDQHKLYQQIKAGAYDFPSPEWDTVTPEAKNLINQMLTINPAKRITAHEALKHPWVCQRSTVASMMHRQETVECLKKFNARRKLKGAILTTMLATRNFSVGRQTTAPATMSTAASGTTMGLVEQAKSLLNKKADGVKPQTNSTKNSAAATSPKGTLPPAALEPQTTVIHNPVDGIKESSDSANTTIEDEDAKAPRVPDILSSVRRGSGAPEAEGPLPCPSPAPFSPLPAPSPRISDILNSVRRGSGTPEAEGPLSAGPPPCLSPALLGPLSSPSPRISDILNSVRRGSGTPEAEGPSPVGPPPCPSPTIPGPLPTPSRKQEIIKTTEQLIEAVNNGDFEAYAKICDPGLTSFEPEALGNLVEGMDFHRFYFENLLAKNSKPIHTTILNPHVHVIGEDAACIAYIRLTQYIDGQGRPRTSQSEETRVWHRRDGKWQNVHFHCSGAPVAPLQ

| SMILES | KINOMEscan: CAMK2B (panel of 442 kinases [1]) | KINOMEscan: DCAMKL2 (panel of 442 kinases [2]) | KINOMEscan: MST1 (panel of 442 kinases [3]) |
| --- | --- | --- | --- |
| CCOc1cc(C(=O)N2CCC(N3CCN(C)CC3)CC2)ccc1Nc1ncc2c(n1)N(C1CCCC1)c1ccccc1C(=O)N2C [Compound 26] | 78 | 3.6 | 100 |
| COc1cc(C(=O)N2CCC(N3CCN(C)CC3)CC2)ccc1Nc1ncc2c(n1)N(C1CCCC1)c1ccccc1C(=O)N2C [Compound 25, 11-cyclopentyl-2-((2-methoxy-4-(4-(4-methylpiperazin-1-yl)piperidine-1-carbonyl)phenyl)amino)-5-methyl-5H-benzo[e]pyrimido[5,4-b][1,4]diazepin-6(11H)-one] | 80 | 1.1 | 100 |
| COc1cc(C(=O)N2CCC(N3CCN(C)CC3)CC2)ccc1Nc1ncc2c(n1)N1CCc3cccc(c31)C(=O)N2C [Compound 24] | 62 | 1.2 | 95 |
| COc1cc(C(=O)N2CCC(N3CCN(C)CC3)CC2)ccc1Nc1ncc2c(n1)N(C)c1ccccc1C(=O)N2C [15 (LRRK2-IN-1)] | 62 | 0.45 | 100 |
